Among the data in US9765056B2, “Indole and pyrrole compounds, a process for their preparation and pharmaceutical compositions containing them” (LES LABORATOIRES SERVIER, priority 2013, dated 2017) are IC50 values, retold here.

Where a name gives a salt, the structure may show the parent alone.

For assay [1], the target named is Bcl-2 protein (histag-Bcl-2, UniProtKB P10415) (Homo sapiens (Human), UniProt P10415). Nature of the assay: Inhibition of Bcl-2 by the fluorescence polarisation technique. It is filed as binding. The note with it: fluorescence polarisation test; method A, or method B where underlined (underlining not visible); read-out: IC50 (nM) Bcl-2 FP. The text has this:
Inhibition of Bcl-2 by the fluorescence polarisation technique

In assay [2] the test system is RS4;11 leukaemia tumour line. Description: In vitro cytotoxicity, Microculture Tetrazolium Assay (MTT). The assay is classed as cell-based. The note with it: Homo sapiens; RS4;11 cells, 48 hours exposure. On the procedure:
The cytotoxicity studies were carried out on the RS4;11 leukaemia tumour line.
The cells are distributed onto microplates and exposed to the test compounds for 48 hours. The cell viability is then quantified by a colorimetric assay, the Microculture Tetrazolium Assay (Cancer Res., 1987, 47, 939-942).

Chain of Bcl-2 protein (P10415 whole entry): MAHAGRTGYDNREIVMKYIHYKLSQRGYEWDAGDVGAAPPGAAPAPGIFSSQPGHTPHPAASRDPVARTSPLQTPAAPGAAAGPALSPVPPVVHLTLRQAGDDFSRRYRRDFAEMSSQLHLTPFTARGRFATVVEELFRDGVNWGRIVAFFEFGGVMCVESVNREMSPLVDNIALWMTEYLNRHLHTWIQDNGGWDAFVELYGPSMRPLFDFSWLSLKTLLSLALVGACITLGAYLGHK

For the molecule `Cc1cc(C(=O)N(c2ccccc2)c2ccc(O)cc2)cn1-c1cc(Br)c(Br)cc1C(=O)N1Cc2ccccc2C[C@H]1CN1CCN(C)CC1` [Example 16, 1-(4,5-Dibromo-2-{[(3S)-3-[(4-methylpiperazin-1-yl)methyl]-3,4-dihydroisoquinolin-2(1H)-yl]carbonyl}phenyl)-N-(4-hydroxyphenyl)-5-methyl-N-phenyl-1H-pyrrole-3-carboxamide], the concentration for half-maximal inhibition (IC50) (commonly the concentration that inhibits the measured activity by half) in assay [1] was found to be 29.6 nM; in assay [2], 656 nM.

Consider `Cc1cc(C(=O)N(c2ccccc2)c2ccc(O)cc2)cn1-c1cc(O)ccc1C(=O)N1Cc2ccccc2C[C@H]1CN1CCN(C)CC1` [Example 17, 1-(5-Hydroxy-2-{[(3S)-3-[(4-methylpiperazin-1-yl)methyl]-3,4-dihydroisoquinolin-2(1H)-yl]carbonyl}phenyl)-N-(4-hydroxyphenyl)-5-methyl-N-phenyl-1H-pyrrole-3-carboxamide], for which the half-maximal inhibitory concentration (IC50) came out at 11.4 nM in assay [1] and 1010 nM in assay [2].

Regarding `Cc1cc(C(=O)N(c2ccccc2)c2ccc(O)cc2)cn1-c1cccc(Cl)c1C(=O)N1Cc2ccccc2C[C@H]1CN(C)C` [Example 18, 1-(3-Chloro-2-{[(3S)-3-[(dimethylamino)methyl]-3,4-dihydroisoquinolin-2(1H)-yl]carbonyl}phenyl)-N-(4-hydroxyphenyl)-5-methyl-N-phenyl-1H-pyrrole-3-carboxamide], the results for the IC50 in assay [1] and in assay [2] were 44.6 nM and 1130 nM, respectively.

In the case of `Cc1cc(C(=O)N(c2ccccc2)c2ccc(O)cc2)cn1-c1ccc(OC(F)(F)F)cc1C(=O)N1Cc2ccccc2C[C@H]1CN1CCN(C)CC1` [Example 19, N-(4-Hydroxyphenyl)-5-methyl-1-[2-{[(3S)-3-[(4-methylpiperazin-1-yl)methyl]-3,4-dihydroisoquinolin-2(1H)-yl]carbonyl}-4-(trifluoromethoxy)phenyl]-N-phenyl-1H-pyrrole-3-carboxamide], the figures for the IC50 in assay [1] and in assay [2] were 245 nM and 2360 nM, respectively.

For the molecule `Cc1cc(C(=O)N(c2ccccc2)c2ccc(O)cc2)cn1-c1cc(F)c(F)cc1C(=O)N1Cc2ccccc2C[C@H]1CN1CCN(C)CC1` [Example 20, 1-(4,5-Difluoro-2-{[(3S)-3-[(4-methylpiperazin-1-yl)methyl]-3,4-dihydroisoquinolin-2(1H)-yl]carbonyl}phenyl)-N-(4-hydroxyphenyl)-5-methyl-N-phenyl-1H-pyrrole-3-carboxamide], the IC50 stood at 74.3 nM in assay [1] and 900 nM in assay [2].

For `Cc1cc(C(=O)N(c2ccccc2)c2ccc(O)cc2)cn1-c1cc(F)ccc1C(=O)N1Cc2ccccc2C[C@H]1CN1CCN(C)CC1` [Example 21, 1-(5-fluoro-2-{[(3S)-3-[(4-methylpiperazin-1-yl)methyl]-3,4-dihydroisoquinolin-2(1H)-yl]carbonyl}phenyl)-N-(4-hydroxyphenyl)-5-methyl-N-phenyl-1H-pyrrole-3-carboxamide], the IC50 stood at 24.6 nM in assay [1] and 256 nM in assay [2].

For `Cc1cc(C(=O)N(c2ccccc2)c2ccc(O)cc2)cn1-c1cc(Br)ccc1C(=O)N1Cc2ccccc2C[C@H]1CN1CCN(C)CC1` [Example 22, 1-(5-Bromo-2-{[(3S)-3-[(4-methylpiperazin-1-yl)methyl]-3,4-dihydroisoquinolin-2(1H)-yl]carbonyl}phenyl)-N-(4-hydroxyphenyl)-5-methyl-N-phenyl-1H-pyrrole-3-carboxamide], the 50% inhibitory concentration (IC50) was 10.7 nM in assay [1] and 142 nM in assay [2].

For `Cc1cc(C(=O)N(c2ccc(O)cc2)c2ccc3[nH]ccc3c2)cn1-c1ccccc1C(=O)N1Cc2ccccc2C[C@H]1CN(C)C` [Example 23, 1-(2-{[(3S)-3-[(Dimethylamino)methyl]-3,4-dihydroisoquinolin-2(1H)-yl]carbonyl}phenyl)-N-(4-hydroxyphenyl)-N-(1H-indol-5-yl)-5-methyl-1H-pyrrole-3-carboxamide], the concentration for half-maximal inhibition (IC50) in assay [1] was found to be 26.1 nM; in assay [2] it was 445 nM.

For `Cc1cc(C(=O)N(c2ccccc2)c2ccc(O)cc2)cn1-c1cc2c(cc1C(=O)N1Cc3ccccc3C[C@H]1CN1CCN(C)CC1)OCO2` [Example 24, N-(4-Hydroxyphenyl)-5-methyl-1-(6-{[(3S)-3-[(4-methylpiperazin-1-yl)methyl]-3,4-dihydroisoquinolin-2(1H)-yl]carbonyl}-1,3-benzodioxol-5-yl)-N-phenyl-1H-pyrrole-3-carboxamide], the IC50 in assay [1] was 15.6 nM; in assay [2], 140 nM.

On to `Cc1cc(C(=O)N(c2ccccc2)c2ccc(O)cc2)cn1-c1ccc(Cl)cc1C(=O)N1Cc2ccccc2C[C@H]1CN1CCN(C)CC1` [Example 25, 1-(4-Chloro-2-{[(3S)-3-[(4-methylpiperazin-1-yl)methyl]-3,4-dihydroisoquinolin-2(1H)-yl]carbonyl}phenyl)-N-(4-hydroxyphenyl)-5-methyl-N-phenyl-1H-pyrrole-3-carboxamide], for which the concentration for half-maximal inhibition (IC50) in assay [1] was 87.6 nM; in assay [2], 1100 nM.

`Cc1cc(C(=O)N(c2ccccc2)c2ccc(O)cc2)cn1-c1cc(Cl)ccc1C(=O)N1Cc2ccccc2C[C@H]1CN1CCN(C)CC1` [Example 26, 1-(5-Chloro-2-{[(3S)-3-[(4-methylpiperazin-1-yl)methyl]-3,4-dihydroisoquinolin-2(1H)-yl]carbonyl}phenyl)-N-(4-hydroxyphenyl)-5-methyl-N-phenyl-1H-pyrrole-3-carboxamide]: the 50% inhibitory concentration (IC50) in assay [1] is 7.5 nM; in assay [2] it was 171 nM.

Turning to `Cc1cc(C(=O)N(c2ccccc2)c2ccc(O)c(Cl)c2)cn1-c1cc(Cl)ccc1C(=O)N1Cc2ccccc2C[C@H]1CN1CCN(C)CC1` [Example 27, N-(3-Chloro-4-hydroxyphenyl)-1-(5-chloro-2-{[(3S)-3-[(4-methylpiperazin-1-yl)methyl]-3,4-dihydroisoquinolin-2(1H)-yl]carbonyl}phenyl)-5-methyl-N-phenyl-1H-pyrrole-3-carboxamide hydrochloride], the values for the concentration for half-maximal inhibition (IC50) in assay [1] and in assay [2] were 20.5 nM and 479 nM, respectively.

Regarding `Cc1cc(C(=O)N(c2ccccc2)c2ccc(O)cc2)cn1-c1cc(Cl)c(F)cc1C(=O)N1Cc2ccccc2C[C@H]1CN1CCN(C)CC1` [Example 28, 1-(5-Chloro-4-fluoro-2-{[(3S)-3-[(4-methylpiperazin-1-yl)methyl]-3,4-dihydroisoquinolin-2(1H)-yl]carbonyl}phenyl)-N-(4-hydroxyphenyl)-5-methyl-N-phenyl-1H-pyrrole-3-carboxamide], the IC50 in assay [1] is 8 nM; in assay [2], 378 nM.

On to `Cc1cc(C(=O)N(c2ccccc2)c2ccc(O)cc2)cn1-c1ccc(Br)cc1C(=O)N1Cc2ccccc2C[C@H]1CN1CCN(C)CC1` [Example 29, 1-(4-Bromo-2-{[(3S)-3-[(4-methylpiperazin-1-yl)methyl]-3,4-dihydroisoquinolin-2(1H)-yl]carbonyl}phenyl)-N-(4-hydroxyphenyl)-5-methyl-N-phenyl-1H-pyrrole-3-carboxamide], for which the half-maximal inhibitory concentration (IC50) came to 44.6 nM in assay [1] and 1010 nM in assay [2].

On to `CN1CCN(C[C@@H]2Cc3ccccc3CN2C(=O)c2cc3c(cc2-n2cc(C(=O)N(c4ccc(O)cc4)c4ccc(Cl)cc4)c4ccccc42)OCO3)CC1` [Example 31, N-(4-Chlorophenyl)-N-(4-hydroxyphenyl)-1-(6-{[(3S)-3-[(4-methylpiperazin-1-yl)methyl]-3,4-dihydroisoquinolin-2(1H)-yl]carbonyl}-1,3-benzodioxol-5-yl)-1H-indole-3-carboxamide], for which the concentration for half-maximal inhibition (IC50) in assay [1] came to 5.5 nM; in assay [2] it was 71.4 nM.

Turning to `Cc1ccc(N(C(=O)c2cn(-c3cc4c(cc3C(=O)N3Cc5ccccc5C[C@H]3CN3CCN(C)CC3)OCO4)c3ccccc23)c2ccc(O)cc2)cc1` [Example 32, N-(4-Hydroxyphenyl)-N-(4-methylphenyl)-1-(6-{[(3S)-3-[(4-methylpiperazin-1-yl)methyl]-3,4-dihydroisoquinolin-2(1H)-yl]carbonyl}-1,3-benzodioxol-5-yl)-1H-indole-3-carboxamide], the IC50 was 3.5 nM in assay [1] and 63.7 nM in assay [2].

As for `CCCCN(C(=O)c1cn(-c2cc3c(cc2C(=O)N2Cc4ccccc4C[C@H]2CN2CCN(C)CC2)OCO3)c2ccccc12)c1ccc(O)cc1` [Example 33, N-Butyl-N-(4-hydroxyphenyl)-1-(6-{[(3S)-3-[(4-methylpiperazin-1-yl)methyl]-3,4-dihydroisoquinolin-2(1H)-yl]carbonyl}-1,3-benzodioxol-5-yl)-1H-indole-3-carboxamide], the results for the IC50 in assay [1] and in assay [2] were 4.4 nM and 199 nM, respectively.

With `CN1CCN(C[C@@H]2Cc3ccccc3CN2C(=O)c2cc3c(cc2-n2cc(C(=O)N(c4ccccc4)c4ccc(O)c(F)c4)c4ccccc42)OCO3)CC1` [Example 34, N-(3-Fluoro-4-hydroxyphenyl)-1-(6-{[(3S)-3-[(4-methylpiperazin-1-yl)methyl]-3,4-dihydroisoquinolin-2(1H)-yl]carbonyl}-1,3-benzodioxol-5-yl)-N-phenyl-1H-indole-3-carboxamide], the half-maximal inhibitory concentration (IC50) in assay [1] came to 7.7 nM; in assay [2] it was 133 nM.

In the case of `CN1CCN(C[C@@H]2Cc3ccccc3CN2C(=O)c2cc3c(cc2-n2cc(C(=O)N(c4ccc(O)cc4)c4ccc(F)cc4)c4ccccc42)OCO3)CC1` [Example 35, N-(4-Fluorophenyl)-N-(4-hydroxyphenyl)-1-(6-{[(3S)-3-[(4-methylpiperazin-1-yl)methyl]-3,4-dihydroisoquinolin-2(1H)-yl]carbonyl}-1,3-benzodioxol-5-yl)-1H-indole-3-carboxamide], the IC50 worked out at 3.5 nM in assay [1] and 68.9 nM in assay [2].

As for `CN1CCN(C[C@@H]2Cc3ccccc3CN2C(=O)c2cc3c(cc2-n2cc(C(=O)N(CCc4ccccc4)c4ccc(Cl)cc4)c4ccccc42)OCO3)CC1` [Example 36, N-(4-Chlorophenyl)-1-(6-{[(3S)-3-[(4-methylpiperazin-1-yl)methyl]-3,4-dihydroisoquinolin-2(1H)-yl]carbonyl}-1,3-benzodioxol-5-yl)-N-(2-phenylethyl)-1H-indole-3-carboxamide], the 50% inhibitory concentration (IC50) in assay [1] was found to be 1110 nM; in assay [2], 2420 nM.
